Measured values as given in patent publication US8729258B2, “Luminescent macrocyclic lanthanide complexes” (The Regents of the University of California, priority 2006, dated 2014).

Key:
[1] = target: streptavidin (Streptomyces avidinii, UniProt P22629); test: Non-specific interaction with protein (streptavidin), consecutive G50 gel filtration spin columns; type: binding; conditions: second and third consecutive gel filtration spin columns after conjugation of activated ester to streptavidin
Experimental: It was therefore important to determine the tendency of the novel ligands to non-specifically interact with proteins. Sulfo-NHS ester and NHS ester derivatives of compound 5 were synthesized and conjugated to streptavidin. For comparison, the NHS ester of ligand 2 was also conjugated to streptavidin. Streptavidin was equilibrated in carbonate buffer, pH 9, at a concentration of approximately 130 μM. A DMF solution of the activated esters of each ligand was added to the protein at a final concentration of approximately 1 mM. The mixtures were allowed to incubate at 4° C. for 1 h. The metal is added either before or after conjugation of the ligand to the protein. Non-conjugated ligand was separated from conjugated protein using a G50 gel filtration centrifugal spin column technique (Penefsky, H. S, Methods Enzymol 1979, 56:527-30). This technique dilutes protein solutions to a lesser extent than conventional gel filtration techniques. Consecutive spin columns were run on a single protein sample solution to evaluate the extent of non-specific absorption of ligand. Following a single gel filtration separation, most of the excess ligand is removed and left at the top of the gel bed. A second spin column treatment should leave no further ligand at the top of the second column unless non-covalent association of the ligand with the protein occurs.

[2] = Kinetic stability of Tb complexes in various media at room temperature; conditions: 5 nM Tb-complex, various media incl. 1% acetic acid and 1 mM EDTA, 0.05% Tween-80, room temperature
Experimental: In order to investigate the stability of macrocyclic ligands further, the stabilities of different Tb-complexes were determined using a variety of different media, including 1% acetic acid and 1 mM EDTA. […] Each stock solution was then diluted 200× into different test solutions in polypropylene microcentrifuge tubes to a final concentration of 5 nM Tb-complex. Each test solution also contained 0.05% Tween-80. The test solutions were allowed to incubate at room temperature. Samples were taken at indicated time points, evaluated in triplicate and luminescence was recorded using standard time-resolved luminescence settings and 340 nm and 490 excitation and emission filters, respectively.

streptavidin, sequence (P22629 25-183): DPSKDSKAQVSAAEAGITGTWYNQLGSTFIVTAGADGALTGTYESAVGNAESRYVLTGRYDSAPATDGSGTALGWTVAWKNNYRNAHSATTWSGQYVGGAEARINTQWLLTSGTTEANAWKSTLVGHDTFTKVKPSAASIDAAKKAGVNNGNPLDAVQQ

SMILES | residual luminescence of ligand left at the top of the gel bed [1] | stability of terbium complex compared to non-restrained ligand (1) [2]
CNC(=O)c1cc(C(=O)NC)c(O)c(C(=O)NCCN(CCNC(=O)c2cc(C(=O)NC)cc(C(=O)NC)c2O)CCN(CCNC(=O)c2cc(C(=O)NC)cc(C(=O)NC)c2O)CCNC(=O)c2cc(C(=O)NCCC(=O)O)cc(C(=O)NC)c2O)c1 [compound 2, reference compound] | high degree of residual luminescence | –
NCCN1CCNC(=O)c2cccc(c2O)C(=O)NCCN(CCNC(=O)c2cccc(C(N)=O)c2O)CCN2CCNC(=O)c3cccc(c3O)C(=O)NCCN(CCNC(=O)c3cccc(c3O)C(=O)NCC2)CC1 [compound 3] | – | significant increase in stability
O=C(O)CCCC(=O)NCCCCC1CN2CCNC(=O)c3cccc(c3O)C(=O)NCCN(CCNC(=O)c3cccc(c3O)C(=O)N1)CCN1CCNC(=O)c3cccc(c3O)C(=O)NCCN(CCNC(=O)c3cccc(c3O)C(=O)NCC1)CC2 (stereo not drawn) [compound 5a, GlutarLysBH(2,2)IAM] | – | significant increase in stability
